Measurements reported in patent publication US11058742B2, “Food composition for suppressing hepatic lipogenesis” (FUJI OIL HOLDINGS INC., priority 2019, dated 2021).

Assays:
Fasn gene mRNA [1] = experiment: Tertiary screening: Fasn gene expression level with changed amount of peptide; format: cell-based, mouse (C57BL/6J); conditions: for effect of suppressing hepatic lipogenesis: conclusion from the results of primary to tertiary screening; for Fasn gene expression level (significantly reduced compared to the blank): final concentration of the sample 10, 30, 100 μg/ml, otherwise as secondary screening
Description: (§1) In the secondary screening, evaluation is performed by measuring the expression level of Fasn gene mRNA using isolated hepatocyte derived from wild-type mouse (C57BL/6J mouse). More specifically, isolated hepatocyte derived from wild-type mouse (C57BL/6J mouse) is plated in 12-well plate in Dulbecco's modified Eagle's medium (DMEM) containing 1% penicillin and streptomycin, and 10% fetal calf serum (FCS) for 8 hours, and then subjected to 16 hours starvation by replacing the medium with Dulbecco's modified Eagle's medium (DMEM) containing 1% penicillin and streptomycin. The medium is recovered and cultured for 24 hours in a medium containing insulin, liver X receptor (LXR) agonist, amino acid mixture, and each peptide (100 μg/ml in the medium at final concentration). In addition, as a group without adding peptide, a sample to which 10% dimethyl sulfoxide (DMSO) is added instead of the peptide is similarly cultured for 24 hours. After removing the medium from each well, mRNA is extracted. The extraction of mRNA is performed with the SV Total RNA Isolation System (Promega, Z3105), reverse transcription from the RNA is performed with the PrimeScript RT reagent kit (Takara, RR0037A), and quantitative PCR is performed with the CFX384 Real-Time System and C1000 Thermal Cycler using the SYBR Select Master Mix kit (Life technologies, 4472908). The methods comply with the instructions for the kit and equipment.
The amount of peptide to be added is changed (as used herein, the final concentration of the sample is 10, 30, 100 μg/ml, unless otherwise specified), and the expression level of the Fasn gene is evaluated in the same manner as in the secondary screening.

Fasn gene mRNA [2] = experiment: Secondary screening: expression level of Fasn gene mRNA in isolated hepatocyte derived from wild-type mouse; format: cell-based, mouse (C57BL/6J); conditions: each peptide 100 μg/ml final concentration, 24 hours, with insulin, LXR agonist, amino acid mixture; vs control (10% DMSO)
Description: as §1

Row | Substance | effect of suppressing hepatic lipogenesis (Fasn gene mRNA [1]) | Fasn gene expression level (significantly reduced compared to the blank) (Fasn gene mRNA [1]) | Fasn gene expression level (significantly reduced compared to the blank) (Fasn gene mRNA [2])
1 | His-Trp | an effect of suppressing hepatic lipogenesis was confirmed | significantly suppressed the expression of the Fasn gene | significantly suppressed the expression of the Fasn gene
2 | Leu-Val-Ile | an effect of suppressing hepatic lipogenesis was confirmed | significantly suppressed the expression of the Fasn gene | 
3 | His-Thr | an effect of suppressing hepatic lipogenesis was confirmed | significantly suppressed the expression of the Fasn gene | significantly suppressed the expression of the Fasn gene
4 | Val-Leu-Gln | an effect of suppressing hepatic lipogenesis was confirmed | significantly suppressed the expression of the Fasn gene | 
5 | Arg-Trp-Phe | an effect of suppressing hepatic lipogenesis was confirmed | significantly suppressed the expression of the Fasn gene | 
6 | Ile-Ile-Pro | an effect of suppressing hepatic lipogenesis was confirmed | significantly suppressed the expression of the Fasn gene | 
7 | Lys-Pro-Ile | an effect of suppressing hepatic lipogenesis was confirmed | significantly suppressed the expression of the Fasn gene | 
8 | Phe-Ile-Arg | an effect of suppressing hepatic lipogenesis was confirmed | significantly suppressed the expression of the Fasn gene | 
9 | Asp-Val-Phe | an effect of suppressing hepatic lipogenesis was confirmed | significantly suppressed the expression of the Fasn gene | 
10 | Val-Ile-Leu | an effect of suppressing hepatic lipogenesis was confirmed | significantly suppressed the expression of the Fasn gene | 
11 | Ala-Gly | an effect of suppressing hepatic lipogenesis was confirmed | significantly suppressed the expression of the Fasn gene | significantly suppressed the expression of the Fasn gene
12 | Asn-Arg-Val | an effect of suppressing hepatic lipogenesis was confirmed | significantly suppressed the expression of the Fasn gene | 
13 | Ile-Asp-Arg | an effect of suppressing hepatic lipogenesis was confirmed | significantly suppressed the expression of the Fasn gene | 
14 | Asp-Phe-Phe | an effect of suppressing hepatic lipogenesis was confirmed | significantly suppressed the expression of the Fasn gene | 
15 | Trp-Glu | an effect of suppressing hepatic lipogenesis was confirmed | significantly suppressed the expression of the Fasn gene | significantly suppressed the expression of the Fasn gene
16 | Pro-Phe-Tyr | an effect of suppressing hepatic lipogenesis was confirmed | significantly suppressed the expression of the Fasn gene | 
17 | Leu-Arg-Asp | an effect of suppressing hepatic lipogenesis was confirmed | significantly suppressed the expression of the Fasn gene | 
18 | Val-Phe-Val | an effect of suppressing hepatic lipogenesis was confirmed | significantly suppressed the expression of the Fasn gene | 
19 | Ala-His |  |  | significantly suppressed the expression of the Fasn gene

Row | Substance | effect of suppressing hepatic lipogenesis (Fasn gene mRNA [1]) | Fasn gene expression level (significantly reduced compared to the blank) (Fasn gene mRNA [1]) | Fasn gene expression level (significantly reduced compared to the blank) (Fasn gene mRNA [2])
20 | Ala-Tyr |  |  | significantly suppressed the expression of the Fasn gene
21 | Val-Met | an effect of suppressing hepatic lipogenesis was confirmed | significantly suppressed the expression of the Fasn gene | significantly suppressed the expression of the Fasn gene
22 | Gly-Ser-Leu | an effect of suppressing hepatic lipogenesis was confirmed | significantly suppressed the expression of the Fasn gene | 
23 | Arg-Ala-Val | an effect of suppressing hepatic lipogenesis was confirmed | significantly suppressed the expression of the Fasn gene | 
24 | Lys-Leu-Gly | an effect of suppressing hepatic lipogenesis was confirmed | significantly suppressed the expression of the Fasn gene | 
25 | Ile-Val-Ile | an effect of suppressing hepatic lipogenesis was confirmed | significantly suppressed the expression of the Fasn gene | 
26 | Ile-His-Arg | an effect of suppressing hepatic lipogenesis was confirmed | significantly suppressed the expression of the Fasn gene | 
27 | Tyr-Tyr | an effect of suppressing hepatic lipogenesis was confirmed | significantly suppressed the expression of the Fasn gene | significantly suppressed the expression of the Fasn gene
28 | His-Ala-Gln | an effect of suppressing hepatic lipogenesis was confirmed | significantly suppressed the expression of the Fasn gene | 
29 | Tyr-Ser | an effect of suppressing hepatic lipogenesis was confirmed | significantly suppressed the expression of the Fasn gene | significantly suppressed the expression of the Fasn gene
30 | Tyr-Lys | an effect of suppressing hepatic lipogenesis was confirmed | significantly suppressed the expression of the Fasn gene | significantly suppressed the expression of the Fasn gene
31 | Trp-Lys | an effect of suppressing hepatic lipogenesis was confirmed | significantly suppressed the expression of the Fasn gene | significantly suppressed the expression of the Fasn gene
32 | His-Ser | an effect of suppressing hepatic lipogenesis was confirmed | significantly suppressed the expression of the Fasn gene | significantly suppressed the expression of the Fasn gene
33 | Asn-Gly-Arg | an effect of suppressing hepatic lipogenesis was confirmed | significantly suppressed the expression of the Fasn gene | 
34 | His-Asn | an effect of suppressing hepatic lipogenesis was confirmed | significantly suppressed the expression of the Fasn gene | significantly suppressed the expression of the Fasn gene
35 | Ser-Gly-Glu | an effect of suppressing hepatic lipogenesis was confirmed | significantly suppressed the expression of the Fasn gene | 
36 | Gln-Glu-Glu | an effect of suppressing hepatic lipogenesis was confirmed | significantly suppressed the expression of the Fasn gene | 
37 | Ser-Ser-Val | an effect of suppressing hepatic lipogenesis was confirmed | significantly suppressed the expression of the Fasn gene | 
